Drawing on patent US4623662A, “Antiatherosclerotic ureas and thioureas” (American Cyanamid Company, priority 1985, dated 1986), this text covers IC50 and response vs control in vivo for two molecules.

The target in test [1] is T1, fatty acyl CoA: cholesterol acyl transferase (ACAT) (Rattus norvegicus, UniProt O70536).
T1 construct: The supernatant, containing the microsomal fraction, served as the source of the cholesterol-esterifying enzyme; from tissue; host or cells: rat adrenals, supernatant of 1,000 x g centrifugation containing the microsomal fraction
T1 sequence (O70536 1-545): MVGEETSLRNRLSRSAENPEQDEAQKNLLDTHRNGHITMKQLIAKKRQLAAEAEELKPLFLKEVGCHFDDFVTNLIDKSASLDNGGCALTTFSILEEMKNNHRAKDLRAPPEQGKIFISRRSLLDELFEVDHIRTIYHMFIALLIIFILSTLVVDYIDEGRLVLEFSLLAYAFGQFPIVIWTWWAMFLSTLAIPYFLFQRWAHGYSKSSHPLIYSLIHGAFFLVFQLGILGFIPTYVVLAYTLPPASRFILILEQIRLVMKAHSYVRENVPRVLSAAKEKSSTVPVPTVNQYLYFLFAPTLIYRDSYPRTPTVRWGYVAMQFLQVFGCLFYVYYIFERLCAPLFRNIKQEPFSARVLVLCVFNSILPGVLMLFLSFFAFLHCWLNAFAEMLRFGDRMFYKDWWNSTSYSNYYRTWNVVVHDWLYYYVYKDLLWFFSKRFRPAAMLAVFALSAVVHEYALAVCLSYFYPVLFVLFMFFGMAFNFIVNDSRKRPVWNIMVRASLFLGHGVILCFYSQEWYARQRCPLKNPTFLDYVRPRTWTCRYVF
Description: Inhibition of fatty acyl CoA:cholesterol acyl transferase (ACAT), rat adrenal enzyme. In kind it is biochemical. The following applies: rat adrenal ACAT; several concentrations. Summed up:
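Read-out was scintillation counting of [14C]cholesteryl ester, isolated by TLC, after 10 min at 37° C with [14C]oleoyl CoA. Beforehand, compound (final 5.2 μg/ml in single-concentration tests) was preincubated 10 min at 37° C with BSA and rat adrenal microsomal supernatant in pH 7.4 phosphate. Results given as percent inhibition versus control or IC50 over several concentrations.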

Test [2] addresses T2, fatty acyl CoA:cholesterol acyl transferase (ACAT) (Rattus norvegicus, UniProt Q7TQM4).
T2 construct: the enzyme was derived from microsomes isolated from rat intestinal mucosal cells; from tissue; host or cells: rat intestinal mucosal cells, microsomes
T2 sequence (Q7TQM4 1-524): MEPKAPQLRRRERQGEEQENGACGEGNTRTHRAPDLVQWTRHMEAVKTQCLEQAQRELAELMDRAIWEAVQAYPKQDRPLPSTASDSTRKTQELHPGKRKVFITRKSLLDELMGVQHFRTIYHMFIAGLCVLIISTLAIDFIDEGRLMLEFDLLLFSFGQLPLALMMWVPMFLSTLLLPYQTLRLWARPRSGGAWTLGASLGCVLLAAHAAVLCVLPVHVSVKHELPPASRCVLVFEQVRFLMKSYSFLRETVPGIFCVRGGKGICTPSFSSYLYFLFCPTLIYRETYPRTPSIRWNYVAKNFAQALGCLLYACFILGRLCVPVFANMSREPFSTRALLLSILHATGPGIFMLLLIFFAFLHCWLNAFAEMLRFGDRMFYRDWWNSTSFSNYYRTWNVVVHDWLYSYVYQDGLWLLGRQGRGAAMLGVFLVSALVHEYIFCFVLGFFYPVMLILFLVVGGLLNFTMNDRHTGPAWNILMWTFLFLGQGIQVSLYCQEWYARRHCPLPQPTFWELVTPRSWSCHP
In words: Inhibition of ACAT from microsomes isolated from rat intestinal mucosal cells. Type of test: biochemical. The protocol: The compounds were tested for their ability to inhibit ACAT according to the following procedure: rat adrenals were homogenized in 0.2M monobasic potassium phosphate buffer, pH 7.4, and centrifuged at 1,000 times gravity for 15 minutes at 5° C. The supernatant, containing the microsomal fraction, served as the source of the cholesterol-esterifying enzyme, fatty acyl CoA:cholesterol acyl transferase (ACAT). A mixture comprising 50 parts of adrenal supernatant, 10 parts of bovine serum albumin (50 mg/ml), 3 parts of test compound (final concentration 5.2 μg/ml), and 500 parts of buffer was preincubated at 37° C. for 10 minutes. After treatment with 20 parts of oleoyl CoA (^14 C-0.4 μCi), the mixture was incubated at 37° C. for 10 minutes. A control mixture, omitting the test compound, was prepared and treated in the same manner. The lipids from the incubation mixture was extracted into an organic solvent and separated by thin-layer chromatography. The cholesteryl ester fraction was counted in a scintillation counter. This procedure is a modification of that described by Hashimoto, et al., Life Scie., 12 (Part II), 1-12 (1973).
The compounds of this invention were tested in vitro at several concentrations for their ability to inhibit the enzyme fatty acyl CoA:cholesterol acyl transferase (ACAT) using the hereinabove described procedure except that the enzyme was derived from microsomes isolated from rat intestinal mucosal cells rather than rat adrenal cells. The results of this test on representative compounds of this invention are given in Table III in terms of IC50 (μM), that concentration which produced 50% inhibition of the ACAT enzyme.

The next test has as its system cholesterol absorption. In words: Inhibition of cholesterol absorption in rats fed 1% cholesterol:0.5% cholic acid diet. The following applies: po, 336 h; rat; dose .003% of the diet, 2 weeks; read-out: LS (liver sterol), percentage of control values. Type of test: in vivo, male Sprague-Dawley rats. The method in brief: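 Compound was mixed into the diet (0.001-0.03%) of male Sprague-Dawley rats, 150-170 g, on a 1% cholesterol/0.5% cholic acid regimen for 2 weeks. At sacrifice, serum cholesterol (enzymatic) and liver neutral-sterol cholesterol were measured; values given as percent of compound-free control rats.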

Turning to `CCCCCCCN(Cc1ccc(CCCC(=O)O)cc1)C(=O)Nc1c(C)cc(Cl)cc1C` [1-(n-Heptyl)-1-[4-(3-carboxypropyl)benzyl]-3-(4-chloro-2,6-dimethylphenyl)urea], the IC50 – broadly, the concentration at which inhibition is half-maximal – in test [1] is 7220 nM; in test [2], 1020 nM.
In test [2], `CCCCCCCN(Cc1ccc(COCCC(C)C)cc1)C(=O)Nc1c(C)cc(Cl)cc1C` [1-(n-Heptyl)-1-[4-(isopentyloxymethyl)benzyl]-3-(4-chloro-2,6-dimethylphenyl)urea] yielded an IC50 of 130 nM. Also, in the test on cholesterol absorption, the response vs control in vivo at 0.003 % is 47%.
